Results reported in patent publication US20230257373A1, “QUORUM SENSING INHIBITORS AND METHODS OF USE” (priority 2020, published 2023).
“And” between values parts separate entries of the source, which are not always exact repeats. Equal entries are not always repeated. Where two headings read alike, the source gives them in different places.

Legend:
V. campbellii LuxR [1] = target: T1, V. campbellii LuxR (Vibrio harveyi, UniProt P21308); assay: E. coli dual-color bioassay (pKM699 LuxR, pJV064 reporter); format: cell-based; details: for Inhibition of LuxR in the E. coli bioassay (in words): GFP and mCherry reporters
T1 construct: expressed in transfected cells; host or cells: E. coli DH10B with pKM699 and reporter pJV064
From the text: Previously, we developed a bioassay that consists of a dual-color fluorescent reporter plasmid that reports both LuxR activities: the luxCDABE promoter is activated by LuxR and drives expression of gfp, and the VIBHAR_05222 promoter is repressed by LuxR and drives expression of mCherry (van Kessel et al., 2013b) (FIG. 2A). We used this reporter plasmid in an E. coli strain that also contains a plasmid expressing LuxR from its native promoter.
A bioassay was developed to monitor LuxR function that consists of a dual-color reporter plasmid (pJV064) that reports both activities: the luxCDABE promoter is activated by LuxR and drives expression of gfp, and the 05222 promoter is repressed by LuxR and drives expression of mCherry (van Kessel, Ulrich et al. 2013). This reporter plasmid was used in an E. coli strain that also contains a plasmid (pKM699) expressing LuxR from its native promoter. E. coli cultures containing these two plasmids were grown at 30° C. in LB medium with chloramphenicol (10 μg/ml) and tetracycline (10 μg/ml) to select for the two plasmids. Compounds were added to the cultures at a range of concentrations, and the cultures were incubated for 16 hours shaking at 30° C.
The dual-promoter fluorescence reporter assays were performed using E. coli strain DH10B containing two plasmids: 1) plasmid pJV064 containing the PluxC fused to GFP and P05222fused to mCherry to assess LuxR transcriptional regulation, and 2) plasmid pKM699 expressing V. campbellii luxR under control of its native promoter or empty vector pLAFR2.

[2] = test system: PluxC-gfp reporter in V. vulnificus; assay: PluxC-gfp reporter in V. vulnificus strains; details: Vibrio vulnificus
[3] = test system: PluxC-gfp reporter in V. campbellii; assay: PluxC-gfp reporter in V. campbellii strains; details: Vibrio campbellii
[4] = test system: PluxC-gfp reporter in V. parahaemolyticus; assay: PluxC-gfp reporter in V. parahaemolyticus strains; details: Vibrio parahaemolyticus
Vibrio strains = assay: luxCDABE reporter across five Vibrio species; details: each Vibrio strain except V. cholerae
V. campbellii = assay: Growth of V. campbellii with inhibitor; format: cell-based; details: high concentrations
From the text: (§1) Many sulfonamide-containing compounds are known to target the folate synthesis pathway in bacteria and inhibit growth (bacteriostatic), and thus these “sulfa drugs” have been used as broad-spectrum antibiotics for decades (Hammoudeh et al., 2013, Roland et al., 1979). […] We also tested the stability of the inhibitors in bacterial cultures and the timing of the inhibitory effect.

V. vulnificus = assay: Growth of V. vulnificus with inhibitor; format: cell-based; details: high concentrations
From the text: as §1

V. campbellii LuxR [5] = target: T1, V. campbellii LuxR; assay: qRT-PCR and western blots in wild-type V. campbellii; format: cell-based
From the text: The Qstatin-treated regulon overlapped with the SmcR regulon by more than 50%, with similar gene expression fold-changes. […] This is important to note because LuxR and HapR proteins are known to autorepress their own expression. To test the effects of adding inhibitors to V. campbellii LuxR, we added 10A, 10B, and 10C to wild-type V. campbellii and used qRT-PCR and western blots to examine the effects on luxR transcript and protein levels. We also examined the transcript levels for luxC and 05222 genes that are directly activated or repressed by LuxR, respectively.
All PCR reactions were performed using Phusion HF polymerase (NEB). T4 polynucleotide kinase (T4 PNK) used in EMSAs and all other enzymes were purchased from NEB and used according to manufacturer's instructions. Site-directed mutagenesis for construction of plasmids expressing mutant proteins was carried out using the Agilent QuikChange II XL Site-Directed Mutagenesis Kit. All oligonucleotides were purchased from Integrated DNA Technologies (IDT).ALL plasmid constructs were confirmed by DNA sequencing (Eurofins). Cloning details for plasmids are available upon request. Western blot analysis was performed as previously described (van Kessel et al., 2013b), except that new anti-LuxR antibodies were generated through Cocalico against purified LuxR protein. In addition, the western blots were probed with anti-RpoB (Neoclone).
Then cells were induced with 50 μM IPTG and grown under the same conditions until cells reached an OD600 of approximately 1, at which 5 mL of cells were collected by centrifugation and frozen in liquid N2. RNA was extracted using a Trizol/chloroform extraction protocol previously described (Rutherford et al., 2011). Quantitative real-time PCR (qRT-PCR) was performed as previously described (Chaparian et al., 2016). Samples were normalized to the internal standard hfq gene. The ΔΔCT values were used to analyze data from three independent biological replicates. Symbols on graphs represent the mean values and error bars represent the standard deviations. All statistical analysis was performed with functions from GraphPad Prism version 8.

[6] = test system: PluxC-gfp reporter in V. coralliilyticus; assay: PluxC-gfp reporter in V. coralliilyticus strains
SmcR [7] = target: T2, SmcR (Vibrio vulnificus, UniProt Q9L8G8); assay: ITC analysis of SmcR interaction with inhibitors; format: binding, V. vulnificus
From the text: To test the validity of the modelling predictions for PTSP, we performed isothermal titration calorimetry (ITC) to determine the binding affinity of SmcR and LuxR for PTSP. […] We noted that PTSP binding to both LuxR and SmcR had lower entropy and enthalpy compared to SmcR binding to Qstatin. […] Thus, we conclude that the efficacy of PTSP inhibition in vivo in these two Vibrio species correlates to the binding affinity determined in vitro for these two proteins.
SmcR and LuxR were purified as described previously. EMSAs were conducted as described previously using oligonucleotides corresponding to the luxC and vvpE promoter sequences. ITC analysis was conducted using purified LuxR or His-tagged SmcR, each in gel-filtration buffer (25 mM Tris pH 7.5, 300 mM NaCl, 0.5 mM EDTA, 1 mM DTT, 2% DMSO). All molecules analyzed were diluted in the same buffer. The samples were degassed for 10 min by vacuum aspiration. Titrations were performed on a Nano-ITC (TA Instruments). […] Thermograms were analyzed using NanoAnalyze software with the independent binding model.

SmcR regulon = details: cited from earlier work
[8] = test system: V. campbellii, V. parahaemolyticus, and V. vulnificus; details: cited from earlier work
SmcR [9] = target: T2, SmcR; details: Kim et al., 2018; cited from earlier work
[10] = read-out: IC50 in the bioassay (approximate)
[11] = ATCC27562, read-out: Inhibition (IC50) of the PluxC-gfp reporter, Vvul ATCC 27562
[12] = read-out: Inhibition (IC50) of the PluxC-gfp reporter, Vvul CMPC6
[13] = read-out: Inhibition (IC50) of the PluxC-gfp reporter, Vvul YJ016
[14] = ATCC25920, read-out: Inhibition (IC50) of the PluxC-gfp reporter, Vcamp ATCC 25920
[15] = read-out: Inhibition (IC50) of the PluxC-gfp reporter, Vcamp BB120
[16] = read-out: Inhibition (IC50) of the PluxC-gfp reporter, Vcamp HY01
[17] = read-out: Inhibition (IC50) of the PluxC-gfp reporter, Vpara 12-297/B
[18] = read-out: Inhibition (IC50) of the PluxC-gfp reporter, Vpara D4
[19] = read-out: Inhibition (IC50) of the PluxC-gfp reporter, Vpara RIMD 2210633
[20] = read-out: Inhibition (IC50) of the PluxC-gfp reporter, Vcoral OCN 008
[21] = read-out: Inhibition (IC50) of the PluxC-gfp reporter, Vcoral OCN 014
[22] = Table 2, titration, 16 hours, read-out: Inhibition (IC50) of GFP production by LuxR in E. coli bioassay

T1 sequence (P21308 whole entry): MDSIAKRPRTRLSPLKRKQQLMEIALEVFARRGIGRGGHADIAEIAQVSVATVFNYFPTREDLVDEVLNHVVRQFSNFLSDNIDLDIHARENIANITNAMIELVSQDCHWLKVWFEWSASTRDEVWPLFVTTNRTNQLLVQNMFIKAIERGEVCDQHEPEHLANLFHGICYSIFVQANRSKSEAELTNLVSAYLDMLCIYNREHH
T2 sequence (Q9L8G8 entry or part of it): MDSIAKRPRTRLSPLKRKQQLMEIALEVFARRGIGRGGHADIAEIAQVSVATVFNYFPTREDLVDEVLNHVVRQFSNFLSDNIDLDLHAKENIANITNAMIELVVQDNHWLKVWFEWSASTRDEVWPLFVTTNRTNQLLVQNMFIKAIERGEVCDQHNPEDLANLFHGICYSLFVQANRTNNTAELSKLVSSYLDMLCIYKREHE

## O=S(=O)(c1ccc(Cl)s1)n1ccc(-c2ccccc2)n1 [Compound 10C, 1-((5-chlorothiophen-2-yl)sulfonyl)-3-phenyl-1H-pyrazole]
V. campbellii LuxR [1]
  Inhibition of LuxR in the E. coli bioassay (in words): most potent
V. campbellii LuxR [1]; [10]
  IC50: 1 to 2 µM
[2]; [11]
  IC50: 0.00075 µM
[2]; [12]
  IC50: 0.0605 µM
[2]; [13]
  IC50: 0.00546 µM
[3]; [14]
  IC50: 0.09 µM
[3]; [15]
  IC50: 0.71 µM
[3]; [16]
  IC50: 0.16 µM
[4]; [17]
  IC50: 1.04 µM
[4]; [18]
  IC50: 1.28 µM
[4]; [19]
  IC50: 0.68 µM
Vibrio strains
  IC50 values lower than Qstatin: ~10 fold
V. campbellii
  Growth rate or growth yield: did not alter growth rate or growth yield
V. vulnificus
  Growth rate or growth yield: did not alter growth rate or growth yield
V. campbellii LuxR [5]; qRT-PCR, to levels in a ΔluxR strain
  luxC transcripts: significantly decreased
V. campbellii LuxR [5]; qRT-PCR, wild-type cultures
  05222 transcripts: significantly increased
V. campbellii LuxR [5]; western blot, wild-type V. campbellii
  LuxR protein level: visible increase
[6]; [20]
  IC50: 1.07 µM
[6]; [21]
  IC50: 2.42 µM

## O=S(=O)(c1ccc(Br)s1)N1CCCC1 [P0074 H04, 1-((5-bromothiophen-2-yl)sulfonyl)pyrrolidine]
V. campbellii LuxR [1]
  Inhibition of LuxR in the E. coli bioassay (in words): consistent inhibition
V. campbellii LuxR [1]; [10]
  IC50: ~35 µM

## FC(F)(F)C1CN(c2nc(-c3ccccc3)cs2)CCO1 (stereo not shown) [P2065 E16, 4-(4-phenylthiazol-2-yl)-2-(trifluoromethyl)morpholine]
V. campbellii LuxR [1]
  Inhibition of LuxR in the E. coli bioassay (in words): only a minor inhibition
V. campbellii LuxR [1]; [22]
  IC50: 5.3 µM

## O=S(=O)(c1ccc(Br)s1)n1cccn1 [Qstatin, 1-((5-bromothiophen-2-yl)sulfonyl)-1H-pyrazole, reference compound]
V. campbellii LuxR [1]
  Inhibition of LuxR in the E. coli bioassay (in words): inhibited LuxR activity
V. campbellii LuxR [1]; [22]
  IC50: 5 µM
V. campbellii LuxR [1]; [10]
  IC50: 5 to 10 µM and 10 to 20 µM
[2]; ATCC27562, read-out: IC50, V. vulnificus ATCC 27562, luxCDABE reporter plasmid
  IC50: 0.4 µM
[2]; [11]
  IC50: 0.5 µM
[2]; [12]
  IC50: 2.1 µM
[2]; [13]
  IC50: 0.9 µM
[3]; [14]
  IC50: 0.8 µM
[3]; read-out: IC50, V. campbellii BB120, luxCDABE
  IC50: 1.3 µM
[3]; [15]
  IC50: 4 µM
[3]; [16]
  IC50: 1.2 µM
SmcR [7]
  Ka: 1.36e+06 M⁻¹
  ΔG: -35 kJ/mol and -35.00 kJ/mol
  ΔH: -81.91 kJ/mol
  ΔS: −157.30 J/mol · K
  −TΔS: 46.91 kJ/mol
SmcR [7]; 25° C., read-out: Kd
  Kd: 0.738 µM
[4]; read-out: IC50, V. parahaemolyticus RIMD2210633, luxCDABE reporter plasmid
  IC50: 2.8 µM
[4]; [17]
  IC50: 1.7 µM
[4]; [18]
  IC50: 3 µM
[4]; [19]
  IC50: 2.3 µM
SmcR regulon; RNA-seq, ΔsmcR strain
  Off-target effects in the ΔsmcR strain: no significant off-target effects
SmcR regulon; RNA-seq
  Overlap of Qstatin-treated regulon with the SmcR regulon: more than 50%
SmcR regulon; wild-type V. vulnificus
  Increase of smcR transcript levels: 2.5 fold
[8]
  Inhibition of pathogenesis in shrimp infection assay: inhibits pathogenesis
[6]; read-out: IC50, V. coralliilyticus OCN008, luxCDABE reporter plasmid
  IC50: 3.6 µM
[6]; [20]
  IC50: 11.6 µM
[6]; [21]
  IC50: 22.2 µM
SmcR [9]
  Effect on SmcR DNA binding affinity: very little effect
